Data: PMC6030096, “Synergy of Physico-chemical and Biological Experiments for Developing a Cyclooxygenase-2 Inhibitor” (Scientific Reports, 2018)
Where two headings read alike, the source gives them in different places.

Tests used:
Format in all cases: biochemical
[1] = molecular target: T1, 5-LOX (Soybean lipoxygenase) (Glycine max, UniProt P08170); test: Lipoxygenase inhibitory activity assay
T1 construct: purchased Cayman Chemical Co. 760700
T1 sequence (P08170 1-839): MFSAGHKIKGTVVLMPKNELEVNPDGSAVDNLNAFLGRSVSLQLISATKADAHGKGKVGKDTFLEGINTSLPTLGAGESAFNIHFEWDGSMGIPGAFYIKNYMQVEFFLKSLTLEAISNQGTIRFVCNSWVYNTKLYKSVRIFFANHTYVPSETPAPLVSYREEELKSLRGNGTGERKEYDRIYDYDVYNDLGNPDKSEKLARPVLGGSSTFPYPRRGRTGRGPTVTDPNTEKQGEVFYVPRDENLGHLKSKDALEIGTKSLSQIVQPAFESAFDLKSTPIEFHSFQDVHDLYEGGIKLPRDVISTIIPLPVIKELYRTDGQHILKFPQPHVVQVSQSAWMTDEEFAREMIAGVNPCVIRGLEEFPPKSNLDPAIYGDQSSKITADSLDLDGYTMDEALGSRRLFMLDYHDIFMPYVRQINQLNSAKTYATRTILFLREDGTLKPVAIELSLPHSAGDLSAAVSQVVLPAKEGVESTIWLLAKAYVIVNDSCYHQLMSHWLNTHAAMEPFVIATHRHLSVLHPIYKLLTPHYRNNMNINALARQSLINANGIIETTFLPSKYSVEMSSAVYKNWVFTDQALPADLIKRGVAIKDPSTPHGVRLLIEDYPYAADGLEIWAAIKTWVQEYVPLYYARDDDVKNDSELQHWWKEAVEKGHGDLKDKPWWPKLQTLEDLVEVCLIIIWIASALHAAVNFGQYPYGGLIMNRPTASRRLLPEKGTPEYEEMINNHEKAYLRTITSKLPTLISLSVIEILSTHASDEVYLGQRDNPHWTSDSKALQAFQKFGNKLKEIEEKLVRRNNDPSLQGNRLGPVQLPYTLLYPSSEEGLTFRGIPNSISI
Description: 10 µL of the compound of each concentration was mixed with 90 µL 5-LOX (Soybean lipoxygenase in assay buffer) in the specified wells of the 96-well plate. Two wells containing assay buffer and AA acted as blanks whereas four wells, each carrying enzyme and AA, were positive controls. 10 µL AA was added to each test well and the plate was shaken for 5 min. Chromogen (100 µL) was added to each well and the plate was again shaken for 5 min. The absorbance of each well at 490 nm was recorded on microplate scanning spectrophotometer. As per the protocol given with the assay kit, the 5-LOX inhibitory activity for each compound at each concentration was determined using the mean of the two values (duplicate experiments) with deviation <5%.

COX-1 = molecular target: T2, COX-1 (Ovis aries, UniProt P05979); test: COX-1 enzyme immunoassay (Cayman inhibitor screening kit)
T2 construct: purchased Cayman Chemical Co. 560131
T2 sequence (P05979 25-600): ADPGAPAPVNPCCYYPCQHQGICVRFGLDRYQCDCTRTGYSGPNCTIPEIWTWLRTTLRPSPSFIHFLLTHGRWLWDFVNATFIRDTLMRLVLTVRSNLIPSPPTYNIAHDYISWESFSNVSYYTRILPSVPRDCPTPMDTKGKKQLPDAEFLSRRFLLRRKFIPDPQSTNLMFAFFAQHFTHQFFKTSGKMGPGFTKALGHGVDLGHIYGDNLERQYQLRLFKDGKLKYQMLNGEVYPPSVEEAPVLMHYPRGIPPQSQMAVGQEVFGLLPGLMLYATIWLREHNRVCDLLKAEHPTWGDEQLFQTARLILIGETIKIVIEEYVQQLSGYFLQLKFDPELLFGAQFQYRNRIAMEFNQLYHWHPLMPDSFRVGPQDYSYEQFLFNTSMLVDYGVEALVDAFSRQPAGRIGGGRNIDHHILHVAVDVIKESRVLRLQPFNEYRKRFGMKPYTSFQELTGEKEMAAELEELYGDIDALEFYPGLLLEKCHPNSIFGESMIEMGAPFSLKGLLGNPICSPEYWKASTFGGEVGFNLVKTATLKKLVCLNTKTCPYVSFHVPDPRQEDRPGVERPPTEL
Description: (§1) Principally, the catalytic activity of COX-1/2 is slowed down in the presence of its inhibitor and quantitatively, it is inversely proportional to the amount of prostaglandin produced in the presence of inhibitor.
(§2) The enzyme inhibition screening assay kits for COX-1/2 and 5-LOX with item no. […] The 100% initial activity tubes for the two enzymes contained 10 µL heme and 10 µL of the enzyme in 160 µL reaction buffer. Then 10 µL inhibitor (compound of above mentioned concentrations) was added to the inhibitor tubes for the two enzymes and 10 µL of vehicle (DMSO) was added to 100% initial activity and background tubes. All the tubes were incubated for 10 min at 37 °C and the reaction was started by adding 10 µL arachidonic acid to all the reaction tubes. After incubation of the reaction vials for 2 min at 37 °C, the enzyme catalysis was stopped by adding 30 µL saturated stannous chloride solution to each test tube and solutions were kept at 0–4 °C. For EIA (enzyme immunoassay) procedure: the EIA buffers and assay specific reagents were prepared as written in the manual. In the COX dilutions, two test tubes labelled as BC1 and BC2 were taken to prepare background samples. Each tube contained 990 µL of EIA buffer and 10 µL of background COX-1 for BC1 and 10 µL of background COX-2 for BC2. The samples for 100% initial activity were diluted in three vials labelled IA1, IA2 and IA3 for each enzyme. IA1 contained 990 µL EIA buffer and 10 µL enzyme, IA2 has 950 µL buffer and 50 µL solution of IA1 (1:2000 dilution of original sample) and IA3 carried 500 µL of buffer and 500 µL of IA2 solution (1:4000 dilution of original sample). Each solution was thoroughly mixed. Solutions of IA2 and IA3 were used for the assaying. […] C2 contained 950 µL buffer and 50 µL solution of C1 (1:2000 dilution of original sample) and vial C3 was charged with 500 µL buffer and 500 µL solution from C2 (1: 4000 dilution of original sample). Only C2 and C3 were run in the assay. After all the reaction dilutions, these were then subjected to 96 wells plate. The wells were divided as: 2 blank wells, 2 NSB wells (non-specific binding), 3 B0 wells (maximum binding), one TA well (total activity), 16 wells for standards (S1–S8 in repeat), 2 BC1 and 2 BC2 wells. Compounds (inhibitors) were put in all the other wells. The sequence for the addition of reagents onto the plate was as per the protocol of the assay kit. […] For developing the plate; it was emptied and washed with wash buffer 5 times followed by the addition of 200 µL Ellman’s reagent to each well. 5 µL tracer was added to the TA well. Then the plate was covered and left for 60 mins for development in dark. After the respective time period the cover was removed and the plate was read at 420 nm. %B/Bo (i.e. % sample or maximum bound) value for standards S1-S8 and each sample was determined from the absorbance values obtained according to the calculation given in the protocol. The amount of prostaglandins formed during the enzymatic reaction was calculated from the values of %B/Bo for all the compounds at all concentrations with the help of the standard curve (plotted between %B/Bo of standards and raw data given in the protocol). Then the prostaglandin formed at each concentration of all the compounds and percentage inhibition values were calculated. The graph between percent inhibition of the enzyme and corresponding concentration of the compound provided IC50 values for the compounds.

COX-2 = molecular target: T3, COX-2 (Homo sapiens, UniProt P35354); test: COX-2 enzyme immunoassay (Cayman inhibitor screening kit); parameters: purchased Cayman Chemical Co. 560131; settings: for Selectivity index: SI = IC50 (COX-1)/ IC50 (COX-2); for IC50: enzyme immunoassay, average of three experiments
T3 sequence (P35354 18-604): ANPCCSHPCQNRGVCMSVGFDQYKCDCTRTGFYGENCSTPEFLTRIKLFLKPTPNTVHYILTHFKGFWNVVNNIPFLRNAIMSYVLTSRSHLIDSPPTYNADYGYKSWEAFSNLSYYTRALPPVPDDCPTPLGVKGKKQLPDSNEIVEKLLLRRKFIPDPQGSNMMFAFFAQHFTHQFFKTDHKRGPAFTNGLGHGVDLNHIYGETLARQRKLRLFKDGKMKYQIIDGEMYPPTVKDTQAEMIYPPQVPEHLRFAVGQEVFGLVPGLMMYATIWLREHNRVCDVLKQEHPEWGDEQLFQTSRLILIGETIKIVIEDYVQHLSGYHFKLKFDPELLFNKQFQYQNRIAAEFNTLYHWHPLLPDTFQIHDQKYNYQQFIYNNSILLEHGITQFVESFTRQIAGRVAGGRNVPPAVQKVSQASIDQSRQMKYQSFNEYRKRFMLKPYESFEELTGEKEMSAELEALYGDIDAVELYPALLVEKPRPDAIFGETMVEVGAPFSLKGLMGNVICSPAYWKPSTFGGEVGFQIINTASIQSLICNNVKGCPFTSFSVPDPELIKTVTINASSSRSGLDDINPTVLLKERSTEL
Description: as §1, §2

[2] = enzyme immunoassay, average of three experiments, read-out: IC50 COX-1
[3] = soybean lipoxygenase, duplicate, read-out: IC50 5-LOX

Compound	IC50 [1] [µM]	IC50 (COX-1) [µM]	Selectivity index (COX-2)	IC50 (COX-2) [µM]	IC50 (COX-1; [2]) [µM]	IC50 [1, 3] [µM]
O=C1NC(=O)C(=Cc2cn(C[C@@H](O)Cn3c4ccccc4c(=O)c4ccccc43)c3ccccc23)C(=O)N1 [(R)-3a]	1 ± 0.1					
CN1C(=O)C(=Cc2cn(C[C@@H](O)Cn3c4ccccc4c(=O)c4ccccc43)c3ccccc23)C(=O)N(C)C1=O [(R)-3b]	2 ± 0.18	1 ± 0.2	10	0.1 ± 0.07		
O=C1Nc2ccccc2C1=Cc1cn(C[C@@H](O)Cn2c3ccccc3c(=O)c3ccccc32)c2ccccc12 [(R)-3c]			0.1	80 ± 7	8 ± 0.38	0.6 ± 0.042
O=C1C(=Cc2cn(C[C@@H](O)Cn3c4ccccc4c(=O)c4ccccc43)c3ccccc23)c2ccccc2N1c1c(Cl)cccc1Cl [(R)-3d]					> 10	0.1 ± 0.06
CC1=NN(c2cccc(Cl)c2)C(=O)C1=Cc1cn(C[C@@H](O)Cn2c3ccccc3c(=O)c3ccccc32)c2ccccc12 [(R)-3e]						0.3 ± 0.13
CN1C(=O)C(=Cc2cn(C[C@H](O)Cn3c4ccccc4c(=O)c4ccccc43)c3ccccc23)C(=O)N(C)C1=O [(S)-3b]	0.09 ± 0.012	0.7 ± 0.05		0.3 ± 0.18		
O=C1C(=Cc2cn(C[C@H](O)Cn3c4ccccc4c(=O)c4ccccc43)c3ccccc23)c2ccccc2N1c1c(Cl)cccc1Cl [(S)-3d]			10	6 ± 0.5	60 ± 4.5	0.6 ± 0.039
CC1=NN(c2cccc(Cl)c2)C(=O)C1=Cc1cn(C[C@H](O)Cn2c3ccccc3c(=O)c3ccccc32)c2ccccc12 [(S)-3e]						0.7 ± 0.038
O=C1NC(=O)C(=Cc2cn(CCCCn3c4ccccc4c(=O)c4ccccc43)c3ccccc23)C(=O)N1 [Compound 4b]	0.07 ± 0.022	> 10		8 ± 0.42		
O=C1Nc2ccccc2C1=Cc1cn(CCCCn2c3ccccc3c(=O)c3ccccc32)c2ccccc12 [Compound 4d]			1.33	3 ± 0.22	4 ± 0.18	0.2 ± 0.09
CC1=NN(c2cccc(Cl)c2)C(=O)C1=Cc1cn(CCCn2c3ccccc3c(=O)c3ccccc32)c2ccccc12 [Compound 4e]			>1.11	9 ± 0.55	> 10	0.4 ± 0.015
CC1=NN(c2cccc(Cl)c2)C(=O)C1=Cc1cn(CCCCn2c3ccccc3c(=O)c3ccccc32)c2ccccc12 [Compound 4f]				40 ± 3.8		0.1 ± 0.07
